Assay type in all cases: binding
For one assay, the target named is HLA-A*24:02 (Homo sapiens, UniProt P04439, D101N/D140Y/D185E/E176V/E190D/F33S/G103R/G107R/I119L/I121M/I306V/K335N/L105A/L180Q/L300P/N151K/N90K/Q86E/Q94H/R106L/R138H/R89G/T104I/T345S/V100E/W191G/Y123F). The note with it: duplicated experiments, positive binder >40%.
For another assay, the target named is HLA-A*02:01 (Homo sapiens, UniProt P04439, D140Y/D185E/D98H/E176V/E277Q/G131W/G231S/I119V/I121R/I166T/I218V/L300P/L318F/N151K/N90K/P208A/P217A/Q86G/Q94H/R138H/R169H/T345S). The note with it: plate-bound monomer 0.5 µg/ml, duplicated experiments, positive binder >40%.
A further assay has as its target HLA-B*07:02 (Homo sapiens, UniProt P01889). The note with it: percent relative the binding of positive control peptide […]; duplicated experiments; positive binder >40%.
A further assay addresses HLA-B*58:01 (Homo sapiens, UniProt P01889, A329T/C349S/D201E/D98Y/E176V/E187L/E204Q/E69T/G107R/I218V/I90N/K202T/L105A/L119I/N104I/N87E/Q89R/Q94S/R106L/R155S/R180L/R86G/S101N/S121R/S35A/S48A/T118I/V127L/V306I/V36M/Y140S/Y91M). The settings on record: duplicated experiments, positive binder >40%.
The target in a further assay is HLA-A*68:01 (Homo sapiens, UniProt P04439, A269V/D185E/E176V/E277Q/E87N/F33Y/G231S/I121M/I166T/I218V/L180W/L300P/L318F/N151K/P208A/P217A/Q86R/R169H/T345S). The settings on record: duplicated experiments, positive binder >40%.
Another assay addresses HLA-A*30:01 (Homo sapiens, UniProt P04439, D140H/D185E/E176W/F33S/G80R/H175R/K168Q/R138E/R41S). The settings on record: duplicated experiments, positive binder >40%.
The target of a further assay is HLA-C*07:01 (Homo sapiens, UniProt P10321, K90N/S123Y). The note with it: duplicated experiments, positive binder >40%.
For the next assay, the target named is HLA-A*30:02 (Homo sapiens, UniProt P04439, D101N/D140H/D185E/E176R/F33S/G80R/H175R/K168Q/Q94H/R138E/R41S/V100E). The settings on record: duplicated experiments, positive binder >40%.
The mark [1] stands for this setting: percent relative the binding of positive control peptide […].

From article PMC3608651, “A Broad Profile of Co-Dominant Epitopes Shapes the Peripheral Mycobacterium tuberculosis Specific CD8+ T-Cell Immune Response in South African Patients with Active Tuberculosis” (PLoS ONE, 2013) come the findings set out here.

Where two headings read alike, the source gives them in different places.

For the substance ATELNNALQ [Rv3875_62–70], the “Bind A*24:02” value on HLA-A*24:02 (percent relative the binding of positive control peptide RYLKDQQLL) is listed as 13%. On HLA-A*02:01 (percent relative the binding of positive control peptide FLPSDFFPSV), the “Bind A*02:01” value is recorded as 8%. In addition, the “Bind B*07:02” value at HLA-B*07:02 is 12%. The “Bind B*58:01” value at HLA-B*58:01 (percent relative the binding of positive control peptide IAMESIVIW) was found to be 4%. Further, on HLA-A*68:01 (percent relative the binding of positive control peptide KTGGPIYKR), the “Bind A*68:01” value turned out to be 5%. The “Bind A*30:01” value at HLA-A*30:01 (percent relative the binding of positive control peptide KTKDIVNGL) turned out to be 16%. In addition, the “Bind C*07:01” value on HLA-C*07:01 (percent relative the binding of positive control peptide KYFDEHYEY) was found to be 8%. Further, the “Bind A*30:02” value at HLA-A*30:02 (percent relative the binding of positive control peptide KIQNFRVYY) is on record as 45%.

Turning to YNAAGGHNA, at HLA-A*24:02 (setting [1]), the “Bind A*24:02” value is reported as 0%. Moreover, the “Bind A*02:01” value on HLA-A*02:01 (setting [1]) amounted to 16%. The “Bind B*07:02” value at HLA-B*07:02 amounted to 0%. For the same substance, the “Bind B*58:01” value on HLA-B*58:01 (setting [1]) was determined as 46%. At HLA-A*68:01 (setting [1]), the “Bind A*68:01” value was 32%. Also, the “Bind A*30:01” value at HLA-A*30:01 (setting [1]) amounted to 10%. For the same substance, the “Bind C*07:01” value on HLA-C*07:01 (setting [1]) is given as 12%. Besides, at HLA-A*30:02 (setting [1]), the “Bind A*30:02” value worked out at 53%.

As to MILAAYHPQ, on HLA-A*24:02 (setting [1]), the “Bind A*24:02” value is on record as 0%. The “Bind A*02:01” value on HLA-A*02:01 (setting [1]) is on record as 56%. In addition, at HLA-B*07:02, the “Bind B*07:02” value came out at 0%. Further, the “Bind B*58:01” value on HLA-B*58:01 (setting [1]) is reported as 11%. The “Bind A*68:01” value at HLA-A*68:01 (setting [1]) came to 0%. The “Bind A*30:01” value on HLA-A*30:01 (setting [1]) stood at 0%. For the same substance, at HLA-C*07:01 (setting [1]), the “Bind C*07:01” value was 4%. Also, the “Bind A*30:02” value at HLA-A*30:02 (setting [1]) was 82%.

Consider YHPQQFIYA, for which the “Bind A*24:02” value at HLA-A*24:02 (setting [1]) turned out to be 0%. The “Bind A*02:01” value at HLA-A*02:01 (setting [1]) was found to be 49%. For the same substance, the “Bind B*07:02” value on HLA-B*07:02 is 0%. Also, at HLA-B*58:01 (setting [1]), the “Bind B*58:01” value is recorded as 9%. Moreover, the “Bind A*68:01” value on HLA-A*68:01 (setting [1]) was determined as 0%. For the same substance, the “Bind A*30:01” value on HLA-A*30:01 (setting [1]) worked out at 3%. Further, the “Bind C*07:01” value on HLA-C*07:01 (setting [1]) was found to be 15%. Moreover, the “Bind A*30:02” value on HLA-A*30:02 (setting [1]) amounted to 0%.

Take VYLLDGLRA: on HLA-A*24:02 (setting [1]), the “Bind A*24:02” value worked out at 87%. Also, at HLA-A*02:01 (setting [1]), the “Bind A*02:01” value amounted to 86%. Moreover, the “Bind B*07:02” value on HLA-B*07:02 was 0%. At HLA-B*58:01 (setting [1]), the “Bind B*58:01” value is recorded as 0%. Moreover, on HLA-A*68:01 (setting [1]), the “Bind A*68:01” value is recorded as 13%. At HLA-A*30:01 (setting [1]), the “Bind A*30:01” value was determined as 0%. Besides, on HLA-C*07:01 (setting [1]), the “Bind C*07:01” value is given as 9%. At HLA-A*30:02 (setting [1]), the “Bind A*30:02” value came to 98%.

SAAIGLSMA: the “Bind A*24:02” value at HLA-A*24:02 (setting [1]) was 0%. The “Bind A*02:01” value on HLA-A*02:01 (setting [1]) came to 67%. For the same substance, the “Bind B*07:02” value on HLA-B*07:02 is recorded as 31%. In addition, at HLA-B*58:01 (setting [1]), the “Bind B*58:01” value was 5%. Moreover, at HLA-A*68:01 (setting [1]), the “Bind A*68:01” value worked out at 0%. Further, the “Bind A*30:01” value on HLA-A*30:01 (setting [1]) was 0%. The “Bind C*07:01” value on HLA-C*07:01 (setting [1]) stood at 0%. The “Bind A*30:02” value at HLA-A*30:02 (setting [1]) stood at 0%.

With LSIVMPVGG, the “Bind A*24:02” value on HLA-A*24:02 (setting [1]) was 0%. Besides, the “Bind A*02:01” value on HLA-A*02:01 (setting [1]) is recorded as 33%. For the same substance, on HLA-B*07:02, the “Bind B*07:02” value was found to be 0%. In addition, the “Bind B*58:01” value on HLA-B*58:01 (setting [1]) was determined as 29%. Besides, on HLA-A*68:01 (setting [1]), the “Bind A*68:01” value is on record as 0%. Moreover, the “Bind A*30:01” value on HLA-A*30:01 (setting [1]) came out at 0%. Also, on HLA-C*07:01 (setting [1]), the “Bind C*07:01” value stood at 0%. The “Bind A*30:02” value at HLA-A*30:02 (setting [1]) came out at 46%.

As for ILAAYHPQQ, at HLA-A*24:02 (setting [1]), the “Bind A*24:02” value was determined as 0%. For the same substance, the “Bind A*02:01” value on HLA-A*02:01 (setting [1]) amounted to 57%. On HLA-B*07:02, the “Bind B*07:02” value was determined as 1%. In addition, the “Bind B*58:01” value on HLA-B*58:01 (setting [1]) amounted to 30%. Further, the “Bind A*68:01” value on HLA-A*68:01 (setting [1]) was found to be 0%. For the same substance, at HLA-A*30:01 (setting [1]), the “Bind A*30:01” value is on record as 1%. For the same substance, the “Bind C*07:01” value at HLA-C*07:01 (setting [1]) was determined as 1%. The “Bind A*30:02” value on HLA-A*30:02 (setting [1]) was determined as 45%.

On to PNGTHSWEY, for which the “Bind A*24:02” value at HLA-A*24:02 (setting [1]) is on record as 0%. The “Bind A*02:01” value on HLA-A*02:01 (setting [1]) came to 0%. Moreover, the “Bind B*07:02” value on HLA-B*07:02 is 8%. The “Bind B*58:01” value at HLA-B*58:01 (setting [1]) was 0%. Besides, the “Bind A*68:01” value on HLA-A*68:01 (setting [1]) is recorded as 9%. Moreover, at HLA-A*30:01 (setting [1]), the “Bind A*30:01” value is listed as 0%. Moreover, the “Bind C*07:01” value at HLA-C*07:01 (setting [1]) is reported as 48%. Also, the “Bind A*30:02” value at HLA-A*30:02 (setting [1]) came to 77%.

In the case of VMPVGGQSS, the “Bind A*24:02” value at HLA-A*24:02 (setting [1]) is 0%. For the same substance, on HLA-A*02:01 (setting [1]), the “Bind A*02:01” value is 60%. Moreover, the “Bind B*07:02” value at HLA-B*07:02 worked out at 0%. For the same substance, at HLA-B*58:01 (setting [1]), the “Bind B*58:01” value turned out to be 0%. At HLA-A*68:01 (setting [1]), the “Bind A*68:01” value was 0%. Moreover, the “Bind A*30:01” value at HLA-A*30:01 (setting [1]) worked out at 0%. Moreover, the “Bind C*07:01” value at HLA-C*07:01 (setting [1]) came out at 0%. In addition, the “Bind A*30:02” value on HLA-A*30:02 (setting [1]) is listed as 12%.

Turning to NGW DINTPA, the “Bind A*24:02” value at HLA-A*24:02 (setting [1]) is given as 36%. The “Bind A*02:01” value on HLA-A*02:01 (setting [1]) was determined as 87%. In addition, the “Bind B*07:02” value on HLA-B*07:02 was determined as 21%. The “Bind B*58:01” value at HLA-B*58:01 (setting [1]) is 0%. On HLA-A*68:01 (setting [1]), the “Bind A*68:01” value is given as 4%. Further, the “Bind A*30:01” value at HLA-A*30:01 (setting [1]) was 8%. In addition, the “Bind C*07:01” value at HLA-C*07:01 (setting [1]) worked out at 14%. At HLA-A*30:02 (setting [1]), the “Bind A*30:02” value stood at 0%.
